In patent US9238656B2, “Imidazo[4,5-b]pyridine derivatives as ALK and JAK modulators for the treatment of proliferative disorders” (priority 2012, dated 2016) one finds IC50 data, which are given here for 16 molecules.

pIC50: −log10 of the molar value. Where a name gives a salt, the structure may show the parent alone. Bounds are passed on as bounds.

For test [1], the target named is baculovirus-expressed JAK2 kinase (Homo sapiens, UniProt O60674). As to the kind of experiment: biochemical. The settings on record: 0.2 μM ATP; read-out: JAK2 Potency. An outline of the steps: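 IC50 derived by variable-slope sigmoidal fit of percent inhibition against log compound concentration. Baculovirus-expressed JAK2 (15 ng/mL) phosphorylated a plate-bound biotinylated 15-mer peptide for 20 min at room temperature; detection by time-resolved fluorescence.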

Test [2] addresses baculovirus-expressed ALK (Homo sapiens, UniProt Q9UM73). As to the kind of experiment: ALK kinase inhibition, TRF/ELISA. It counts as biochemical. The settings on record: read-out: ALK Potency. An outline of the steps:
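Eu-PT66 anti-phosphotyrosine TRF read-out measured phosphorylation of plate-bound GST-PLC-γ (coated at 10 μg/mL). The phosphorylation was driven by 30 ng/mL ALK for 15 minutes at 37° C.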
On the technique in general: An ELISA detects its analyte on a solid surface through an enzyme-linked reagent.

Chain of baculovirus-expressed ALK (Q9UM73 19-1620): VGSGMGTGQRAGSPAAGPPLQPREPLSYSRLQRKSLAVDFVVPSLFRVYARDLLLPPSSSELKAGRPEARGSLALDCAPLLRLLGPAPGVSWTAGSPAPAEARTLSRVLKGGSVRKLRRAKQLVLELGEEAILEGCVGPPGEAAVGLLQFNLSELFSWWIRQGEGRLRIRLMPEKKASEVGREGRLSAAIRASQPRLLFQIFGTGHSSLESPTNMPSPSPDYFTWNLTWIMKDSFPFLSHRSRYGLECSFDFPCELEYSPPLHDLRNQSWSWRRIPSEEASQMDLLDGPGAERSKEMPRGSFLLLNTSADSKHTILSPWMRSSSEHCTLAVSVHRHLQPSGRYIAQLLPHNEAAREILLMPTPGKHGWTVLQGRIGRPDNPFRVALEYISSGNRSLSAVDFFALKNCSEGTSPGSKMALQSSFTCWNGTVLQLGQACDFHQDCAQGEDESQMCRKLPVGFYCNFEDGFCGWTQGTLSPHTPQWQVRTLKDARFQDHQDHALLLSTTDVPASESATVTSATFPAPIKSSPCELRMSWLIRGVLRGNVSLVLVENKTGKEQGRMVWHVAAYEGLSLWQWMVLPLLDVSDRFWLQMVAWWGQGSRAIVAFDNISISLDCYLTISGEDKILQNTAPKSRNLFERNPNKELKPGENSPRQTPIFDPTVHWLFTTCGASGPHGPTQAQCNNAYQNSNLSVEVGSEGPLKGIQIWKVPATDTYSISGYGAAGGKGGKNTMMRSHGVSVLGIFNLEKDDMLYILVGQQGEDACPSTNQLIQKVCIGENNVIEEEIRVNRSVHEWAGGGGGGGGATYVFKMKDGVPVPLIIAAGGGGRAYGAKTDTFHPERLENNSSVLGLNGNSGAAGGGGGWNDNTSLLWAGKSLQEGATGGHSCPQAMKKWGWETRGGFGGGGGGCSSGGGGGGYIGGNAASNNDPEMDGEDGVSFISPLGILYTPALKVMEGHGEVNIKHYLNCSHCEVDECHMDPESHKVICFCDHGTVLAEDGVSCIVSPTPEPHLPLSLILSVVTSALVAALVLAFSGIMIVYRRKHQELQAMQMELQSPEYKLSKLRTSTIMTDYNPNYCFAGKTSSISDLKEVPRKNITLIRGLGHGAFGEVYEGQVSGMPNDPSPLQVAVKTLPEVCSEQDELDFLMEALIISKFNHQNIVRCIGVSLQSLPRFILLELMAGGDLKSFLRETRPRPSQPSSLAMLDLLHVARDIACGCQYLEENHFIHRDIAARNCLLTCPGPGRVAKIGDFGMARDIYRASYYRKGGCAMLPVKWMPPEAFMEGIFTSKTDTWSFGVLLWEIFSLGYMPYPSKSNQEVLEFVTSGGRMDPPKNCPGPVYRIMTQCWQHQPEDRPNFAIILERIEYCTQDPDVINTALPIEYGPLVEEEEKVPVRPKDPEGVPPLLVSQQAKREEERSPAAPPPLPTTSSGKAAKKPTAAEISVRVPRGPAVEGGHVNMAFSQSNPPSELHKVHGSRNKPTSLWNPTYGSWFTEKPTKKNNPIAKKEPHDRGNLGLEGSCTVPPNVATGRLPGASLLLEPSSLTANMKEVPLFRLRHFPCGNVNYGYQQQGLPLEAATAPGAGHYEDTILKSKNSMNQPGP
Chain of baculovirus-expressed JAK2 kinase (O60674 whole entry): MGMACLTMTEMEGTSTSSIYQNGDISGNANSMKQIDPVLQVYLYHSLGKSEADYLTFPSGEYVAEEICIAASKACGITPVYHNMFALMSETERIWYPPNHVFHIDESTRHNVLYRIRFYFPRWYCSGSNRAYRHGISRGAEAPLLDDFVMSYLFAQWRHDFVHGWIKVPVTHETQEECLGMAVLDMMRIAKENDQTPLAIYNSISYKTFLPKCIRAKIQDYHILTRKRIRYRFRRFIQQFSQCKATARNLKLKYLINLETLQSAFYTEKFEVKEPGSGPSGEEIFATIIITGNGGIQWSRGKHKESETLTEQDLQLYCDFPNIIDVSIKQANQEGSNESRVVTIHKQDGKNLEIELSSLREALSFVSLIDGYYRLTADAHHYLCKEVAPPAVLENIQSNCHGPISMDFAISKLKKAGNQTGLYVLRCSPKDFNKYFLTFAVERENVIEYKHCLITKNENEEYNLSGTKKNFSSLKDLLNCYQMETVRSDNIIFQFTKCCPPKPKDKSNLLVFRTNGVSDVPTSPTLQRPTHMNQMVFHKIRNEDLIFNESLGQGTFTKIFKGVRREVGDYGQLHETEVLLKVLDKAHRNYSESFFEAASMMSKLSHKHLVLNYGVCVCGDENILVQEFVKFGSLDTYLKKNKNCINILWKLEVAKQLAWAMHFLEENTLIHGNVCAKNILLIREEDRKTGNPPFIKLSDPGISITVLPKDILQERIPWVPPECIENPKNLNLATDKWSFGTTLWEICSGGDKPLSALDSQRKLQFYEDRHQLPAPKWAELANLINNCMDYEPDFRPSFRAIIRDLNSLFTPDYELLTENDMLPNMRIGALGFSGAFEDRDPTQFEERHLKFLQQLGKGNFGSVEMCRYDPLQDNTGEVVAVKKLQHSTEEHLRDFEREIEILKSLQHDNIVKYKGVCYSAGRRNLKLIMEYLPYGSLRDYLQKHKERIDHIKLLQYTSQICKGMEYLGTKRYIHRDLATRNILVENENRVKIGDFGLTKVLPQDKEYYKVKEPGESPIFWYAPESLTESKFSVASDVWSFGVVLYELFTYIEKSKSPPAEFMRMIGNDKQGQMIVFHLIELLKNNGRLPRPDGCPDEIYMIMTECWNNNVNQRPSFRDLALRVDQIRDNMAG

`NC(=O)[C@@H]1[C@H](Nc2c(Cl)cnc3[nH]c(-c4ccc(N5CCOCC5)c(Cl)c4)nc23)[C@H]2C=C[C@@H]1C2` [Compound CXXXVII, (1S,2S,3R,4R)-3-[6-Chloro-2-(3-chloro-4-morpholin-4-yl-phenyl)-3H-imidazo[4,5-b]pyridin-7-ylamino]-bicyclo[2.2.1]hept-5-ene-2-carboxylic acid amide]: the pIC50 in test [1] was more than 7.00; in test [2] it was 6.00 to 7.00.
The like results for `NC(=O)[C@@H]1[C@H](Nc2c(Cl)cnc3[nH]c(-c4ccc(C(=O)N5CCNCC5)cc4)nc23)[C@H]2C=C[C@@H]1C2` [Compound CCXX, (1S,2S,3R,4R)-3-(6-chloro-2-(4-(piperazine-1-carbonyl)phenyl)-3H-imidazo[4,5-b]pyridin-7-ylamino)bicyclo[2.2.1]hept-5-ene-2-carboxamide] were, in that order, more than 7.00 and more than 7.00.
The like results for `NC(=O)[C@@H]1[C@H](Nc2c(Br)cnc3[nH]c(-c4ccccc4F)nc23)[C@H]2C=C[C@@H]1C2` [Compound CXXXI, (1S,2S,3R,4R)-3-[6-Bromo-2-(2-fluoro-phenyl)-3H-imidazo[4,5-b]pyridin-7-ylamino]-bicyclo[2.2.1]hept-5-ene-2-carboxylic acid amide] were, in that order, more than 7.00 and more than 7.00.
The like results for `C[C@H](O)CN1CCC(n2cc(-c3nc4c(N[C@H]5[C@@H](C(N)=O)[C@@H]6C=C[C@H]5C6)c(Cl)cnc4[nH]3)cn2)CC1` [Compound LIX, (1S,2S,3R,4R)-3-(6-Chloro-2-{1-[1((S)-2-hydroxypropyl)-piperidin-4-yl]-1H-pyrazol-4-yl}-3H-imidazo[4,5-b]pyridine-7-ylamino)-bicyclo[2.2.1]hept-5-ene-2-carboxylic acid amide] were, in that order, more than 7.00 and more than 7.00.
For the molecule `COc1cc(C2=CCN(C[C@H](C)O)CC2)ccc1-c1nc2c(N[C@H]3[C@@H](C(N)=O)[C@@H]4C=C[C@H]3C4)c(Cl)cnc2[nH]1` [Compound XLVIII, (1S,2S,3R,4R)-3-(6-Chloro-2-[4-[1((S)-2-hydroxypropyl)-1,2,3,6-tetrahydro-pyridin-4-yl]-2-methoxyphenyl]-3H-imidazo[4,5-b]pyridine-7-ylamino)-bicyclo[2.2.1]hept-5-ene-2-carboxylic acid amide], the pIC50 in test [1] and in test [2] was more than 7.00 in each case.
As for `COC[C@H](O)CN1CCC(n2cc(-c3nc4c(N[C@H]5[C@@H](C(N)=O)[C@@H]6C=C[C@H]5C6)c(Cl)cnc4[nH]3)cn2)CC1` [Compound LX, (1S,2S,3R,4R)-3-(6-Chloro-2-{1-[1-((R)-2-hydroxy-3-methoxy-propyl)-piperidin-4-yl]-1H-pyrazol-4-yl}-3H-imidazo[4,5-b]pyridine-7-ylamino)-bicyclo[2.2.1]hept-5-ene-2-carboxylic acid amide], the pIC50 in test [1] and in test [2] was more than 7.00 each time.
On to `COc1ccc(-c2nc3c(N[C@H]4[C@@H](C(N)=O)[C@@H]5C=C[C@H]4C5)c(Cl)cnc3[nH]2)c(C2CCN(C[C@H](C)O)CC2)c1` [Compound XXXII, (1S,2S,3R,4R)-3-(6-Chloro-2-{2-[1-((S)-2-hydroxypropyl)-piperidin-4-yl]-4-methoxy-phenyl}-3H-imidazo[4,5-b]pyridin-7-ylamino)-bicyclo[2.2.1]hept-5-ene-2-carboxylic acid amide], for which the pIC50 in test [1] and in test [2] was 5.00 to 6.00 each time.
On to `NC(=O)[C@@H]1[C@H](Nc2c(Cl)cnc3[nH]c(-c4ccc(O)cc4)nc23)[C@H]2C=C[C@@H]1C2` [Compound CCXXXIV, (1S,2S,3R,4R)-3-(6-chloro-2-(4-hydroxyphenyl)-3H-imidazo[4,5-b]pyridin-7-ylamino)bicyclo[2.2.1]hept-5-ene-2-carboxamide], for which the results for the pIC50 in test [1] and in test [2] were more than 7.00 and 6.00 to 7.00, respectively.
On to `NC(=O)[C@@H]1[C@H](Nc2c(Cl)cnc3[nH]c(-c4ccc(OCCN5CCOCC5)cc4)nc23)[C@H]2C=C[C@@H]1C2` [Compound CCXXXIX, (1S,2S,3R,4R)-3-(6-chloro-2-(4-(2-morpholinoethoxy)phenyl)-3H-imidazo[4,5-b]pyridin-7-ylamino)bicyclo[2.2.1]hept-5-ene-2-carboxamide], for which the pIC50 in test [1] and in test [2] was more than 7.00 each time.
With `NC(=O)[C@@H]1[C@H](Nc2c(Br)cnc3[nH]c(-c4ccc(CN5CCOCC5)cc4)nc23)[C@H]2C=C[C@@H]1C2` [Compound LXXX, (1S,2S,3R,4R)-3-[6-Bromo-2-(4-morpholin-4-ylmethyl-phenyl)-3H-imidazo[4,5-b]pyridin-7-ylamino]-bicyclo[2.2.1]hept-5-ene-2-carboxylic acid amide], the pIC50 in test [1] and in test [2] was more than 7.00 in each case.
For the molecule `COc1cccc(-c2nc3c(N[C@H]4[C@@H](C(N)=O)[C@@H]5C=C[C@H]4C5)c(Cl)cnc3[nH]2)n1` [Compound CXXIV, (1S,2S,3R,4R)-3-[6-Chloro-2-(6-methoxy-pyridin-2-yl)-3H-imidazo[4,5-b]pyridin-7-ylamino]-bicyclo[2.2.1]hept-5-ene-2-carboxylic acid amide], the pIC50 in test [1] and in test [2] was more than 7.00 each time.
With `NC(=O)[C@@H]1[C@H](Nc2c(Cl)cnc3[nH]c(-c4ccc(CN5CCOCC5)cc4)nc23)[C@H]2C=C[C@@H]1C2` [Compound III, (1S,2S,3R,4R)-3-[6-Chloro-2-(4-morpholin-4-ylmethyl-phenyl)-3H-imidazo[4,5-b]pyridine-7-ylamino]-bicyclo[2.2.1]hept-5-ene-2-carboxylic acid amide-trifluoroacetate salt], the pIC50 in test [1] and in test [2] was more than 7.00 each time.
For the molecule `N#Cc1cccc(-c2nc3c(N[C@H]4[C@@H](C(N)=O)[C@@H]5C=C[C@H]4C5)c(Br)cnc3[nH]2)c1` [Compound CXLVI, (1S,2S,3R,4R)-3-[6-Bromo-2-(3-cyano-phenyl)-3H-imidazo[4,5-b]pyridin-7-ylamino]-bicyclo[2.2.1]hept-5-ene-2-carboxylic acid amide], the pIC50 is more than 7.00 in test [1] and 6.00 to 7.00 in test [2].
As for `NC(=O)[C@@H]1[C@H](Nc2c(Cl)cnc3[nH]c(-c4cn5c(n4)CCCC5)nc23)[C@H]2C=C[C@@H]1C2` [Compound CCXIII, (1S,2S,3R,4R)-3-(6-chloro-2-(5,6,7,8-tetrahydroimidazo[1,2-a]pyridin-2-yl)-3H-imidazo[4,5-b]pyridin-7-ylamino)bicyclo[2.2.1]hept-5-ene-2-carboxamide], the pIC50 was more than 7.00 in test [1] and 6.00 to 7.00 in test [2].
On the same counts, the results for `NC(=O)[C@@H]1[C@H](Nc2c(Br)cnc3[nH]c(-c4ccnc(N5CCOCC5)c4)nc23)[C@H]2C=C[C@@H]1C2` [Compound CXXXVI, (1S,2S,3R,4R)-3-[6-Bromo-2-(2-morpholin-4-yl-pyridin-4-yl)-3H-imidazo[4,5-b]pyridin-7-ylamino]-bicyclo[2.2.1]hept-5-ene-2-carboxylic acid amide] are more than 7.00 and 6.00 to 7.00.
On the same counts, the results for `COc1cc(CN2CCOCC2)ccc1-c1nc2c(N[C@H]3[C@@H](CO)[C@@H]4C=C[C@H]3C4)c(Cl)cnc2[nH]1` [Compound LII, {(diexo)-3-[6-Chloro-2-(2-methoxy-4-morpholin-4-ylmethylphenyl)-3H-imidazo[4,5-b]pyridine-7-ylamino]-bicyclo[2.2.1]hept-5-en-2-yl}-methanol] are 6.00 to 7.00 and more than 7.00.
